Measured values: patent publication US20220152080A1 (priority 2019, published 2022)

Legend:
[1] = test system: vRNP nuclear export (viral NP protein), WSN/H1N1; type: cell-based, influenza A virus
[2] = test system: RanBP1 (Crm1 export pathway); type: cell-based
[3] = test system: WSN/H1N1; type: cell-based, influenza A virus; details: read-out: EC50 (progeny virus titers)
[4] = test system: WSN/H1N1, PR8M/H1N1, pdm09Hamburg/H1N1, Panama/H3N2, KAN-1/H5N1, Anhui/H7N9, SC35M/H7N7, B/Lee; type: cell-based, influenza A and B viruses; details: 15 μM, 24 h p.i., MOI 0.01, A549 or MDCKII cells, DMSO control = 100%
[5] = test system: vRNPs of WSN/H1N1, PR8M/H1N1, pdm09Hamburg/H1N1, Panama/H3N2, KAN-1/H5N1, Anhui/H7N9, SC35M/H7N7, B/Lee; type: cell-based, influenza A and B viruses; details: 15 μM, treated 3 h p.i., fixed 9 h or 12 h p.i., MOI 5
[6] = test system: GSK-3β; type: cell-based
[7] = test system: vRNP-M1 interaction; type: cell-based, influenza A virus
[8] = test system: ERK1/2; type: cell-based
[9] = test system: RSK1; details: in vitro; cited from earlier work
[10] = test system: viral NP protein (Serine residues 269 and 392); type: cell-based, influenza A virus
[11] = test system: RSK1; type: cell-based
[12] = target: p90 ribosomal S6 kinase (N-terminal kinase domain); details: cited from earlier work
[13] = test system: MCF-7; details: cited from earlier work
[14] = test system: RSK substrate p140; details: not that of RSK or RSK upstream kinases even at 100 μM; cited from earlier work
[15] = test system: ERK1/2; experiment: TPA stimulation: nuclear localization of ERK1/2 in A549 cells; type: cell-based; details: A549, TPA-stimulated, 1 h; unstimulated 27.99%±1.97%
Protocol: (§1) (A,C) A549 cells were stimulated with TPA (200 nM). The solvent DMSO served as negative control. After 1 h the cells were fixed and cellular localization of RSK2 or ERK1/2 (Alexa-561) was analyzed by epifluorescence microscopy. Nuclei were stained with Dapi. Dashed squares indicate zoom-in areas. Shown are representative epifluorescence microscopy pictures of single focal planes. Results of one out of three independent experiments are shown. Scale bar represents 50 μm.(B,D) Quantification of the cellular localization of RSK2 or ERK1/2 from (A,C). 15 epifluorescence microscopy pictures of each sample were analyzed in terms of the RSK2 localization using the ImageJ “Intensity Ratio Nuclei Cytoplasm Tool”. Results are depicted as means±SD of three independent experiments. Statistical significance was analyzed by unpaired t-test with Welch's correction (**p≤0.01).
(§2) To exclude unspecific staining of RSK2 and ERK1/2 the Raf/MEK/ERK-pathway was stimulated with TPA. It is known that the incubation with TPA leads to the activation of the Raf/MEK/ERK-pathway resulting in the nuclear localization of ERK1/2 and RSKs within minutes after the stimulation. […] After 1 h the cells were fixed and cellular localization of RSK2 or ERK1/2 (Alexa-561) was analyzed by epifluorescence microscopy. […] Statistical significance was analyzed by unpaired t-test with Welch's correction (**p≤0.01). […]

[16] = test system: RSK2; experiment: TPA stimulation: nuclear localization of RSK2 in A549 cells; type: cell-based; details: A549, TPA-stimulated, 1 h; unstimulated 29.37%±1.15%
Protocol: as §1, §2

For `O=C(O)c1ccc(F)c(F)c1Nc1ccc(I)cc1Cl` [ATR-002], the “nuclear retention of the viral NP protein (vRNPs)” value (“nuclear retention … (vRNPs)” below) [1] was “nuclear retention” and the “nuclear retention of RanBP1” value [2] was “not detected”.
In the case of `CC(C)CCN1c2nc(Nc3cc(F)c(O)c(F)c3)ncc2N(C)C(=O)C1C` (centres unmarked) [BI-D1870], the EC50 [3] is reported as 2810 nM, the “nuclear retention … (vRNPs)” value [1] is reported as “negatively affected the vRNP nuclear export” and the “reduction of progeny viral titers, all tested viruses” value [4] is reported as 80 to 90%. For the same compound, the “nuclear retention of newly synthesized vRNPs, all tested viruses” value [5] was “nuclear retention of newly synthesized vRNPs”, the GSK-3ß phosphorylation [6] was “concentration dependent reduction” and the “amount of M1 co-purified with Strep-PB2-vRNPs” value [7] was “decreased amount of M1”. The ERK1/2 phosphorylation state [8] was “induction of the ERK1/2 phosphorylation state” and the IC50 [9] was […].
For `O=C(NOCC1CC1)c1ccc(F)c(F)c1Nc1ccc(I)cc1Cl` [CI-1040], the “phosphorylation state of NP Serine residues 269 and 392” value [10] was “decreased phosphorylation state” and the “virus induced RSK activation” value [11] was “blocked”.
In the case of `CCC(=C/[C@H](C)C/C=C/C(C)=C/[C@@H](C)C(=O)[C@@H](C)[C@H](O)[C@@H](C)C/C(C)=C/C(=O)O)/C=C/[C@@H]1OC(=O)C=C[C@@H]1C` [Leptomycin B], the “nuclear retention … (vRNPs)” value [1] is reported as “highest retention rates” and the “nuclear retention of RanBP1” value [2] is reported as “nuclear retention of RanBP1 was only detected for the Leptomycin B treated samples”.
With `CC(=O)O[C@@H]1[C@@H](OC(C)=O)[C@@H](O)[C@H](Oc2c(-c3ccc(O)cc3)oc3cc(O)cc(O)c3c2=O)O[C@H]1C` [SL0101-1] the EC50 [3] was 10500 nM, the “nuclear retention … (vRNPs)” value [1] was “nuclear retention” and the “nuclear retention of RanBP1” value [2] was “not detected”. The Ki ([12]; selective, reversible, ATP-competitive) was 1000 nM, the IC50 ([12]; with 10 μM ATP, read-out: IC50 RSK kinase activity) was 89 nM and the “inhibition of proliferation of MCF-7” value [13] was “inhibit the proliferation of MCF-7”. For the same compound, the “block of PDB-induced cellular phosphorylation of p140” value [14] was “specifically block”.
In the case of `CCCCCCCCCCCCCC(=O)O[C@@H]1[C@@H](C)[C@@]2(O)[C@@H](C=C(CO)C[C@]3(O)C(=O)C(C)=C[C@@H]23)[C@@H]2C(C)(C)[C@]12OC(C)=O` [TPA], the “nuclear accumulation of ERK1/2” value [15] is reported as 48.02%±2.25% and the “nuclear accumulation of RSK2” value [16] is reported as 34.89%±0.67%.
